# Experimental data from US9382257B2, “Substituted pyrrolo[2,3-b]pyrazines as serine/threonine kinase inhibitors” (Genentech, Inc., priority 2002, dated 2016).
# Molecular target: T1, human ERK-2 (Homo sapiens, UniProt P28482)
# T1 construct: n-terminal 6-His fusion protein in E. coli and corresponding to aa 8-360; 6-His (N); made in house; host or cells: E. coli
# Test: Labchip Kinase ERK Assay (Example 3)
# Type: biochemical
# Conditions: LabChip Erk Assay (footnote 2), 25 μM ATP, Caliper LabChip 3000; read-out: ERK Inhibition IC50
# Method: Compounds were tested in an enzymatic assay using human ERK-2 recombinantly expressed as an n-terminal 6-His fusion protein in E. coli and corresponding to aa 8-360. The substrate used was 5FAM-IPTSPITTTYFFFKKK-COOH (Caliper cat #760352). Test compounds were diluted in DMSO in 3-fold serial dilutions at 100× final concentrations. […] The assay was run at ambient temperature in a white 384-well polypropylene plate (Nunc, Inc of Naperville, Ill.; Cat. 267462) for 60 minutes then stopped by addition of EDTA. Percent substrate phosphorylated was determined by microfluidic separation using a Caliper LabChip 3000 instrument. Percent inhibition was plotted against compound concentration and IC50 values were determined using a four-parameter fit.
# T1 sequence (P28482 8-360): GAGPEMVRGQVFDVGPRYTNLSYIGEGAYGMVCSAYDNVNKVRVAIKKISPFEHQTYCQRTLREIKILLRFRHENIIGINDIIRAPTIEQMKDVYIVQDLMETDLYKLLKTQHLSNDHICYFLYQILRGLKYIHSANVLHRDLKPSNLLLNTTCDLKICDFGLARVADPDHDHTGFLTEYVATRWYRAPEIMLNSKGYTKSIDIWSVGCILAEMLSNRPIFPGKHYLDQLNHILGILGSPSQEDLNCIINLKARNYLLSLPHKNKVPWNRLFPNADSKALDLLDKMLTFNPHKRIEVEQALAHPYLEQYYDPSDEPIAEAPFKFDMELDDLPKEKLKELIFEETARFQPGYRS
row,SMILES,IC50 [nM]
1,"Cc1noc(C)c1-c1cnc2[nH]cc(-c3cnn(Cc4ccccc4)c3)c2n1 [I-14, 7-(1-benzyl-1H-pyrazol-4-yl)-2-(3,5-dimethyl-isoxazol-4-yl)-5H-pyrrolo[2,3-b]pyrazine]",110
2,"Cc1cc(-c2c[nH]c3ncc(-c4ccncc4)nc23)cnc1F [II-1, 7-(6-fluoro-5-methyl-pyridin-3-yl)-2-pyridin-4-yl-5H-pyrrolo[2,3-b]pyrazine]",53.1
3,"Cc1[nH]ncc1-c1cnc2[nH]cc(-c3cnn(Cc4cccc(OC(F)(F)F)c4)c3)c2n1 [I-22, 2-(5-methyl-1H-pyrazol-4-yl)-7-[1-(3-trifluoromethoxy-benzyl)-1H-pyrazol-4-yl]-5H-pyrrolo[2,3-b]pyrazine]",14.9
4,"Cc1nn(C)c(C)c1-c1cnc2[nH]cc(-c3cnn(Cc4ccccc4)c3)c2n1 [I-13, 7-(1-benzyl-1H-pyrazol-4-yl)-2-(1,3,5-trimethyl-1H-pyrazol-4-yl)-5H-pyrrolo[2,3-b]pyrazine]",105
5,"c1ccc(Cn2cc(-c3c[nH]c4ncc(-c5ccc6cn[nH]c6c5)nc34)cn2)cc1 [I-19, 7-(1-benzyl-1H-pyrazol-4-yl)-2-(1H-indazol-6-yl)-5H-pyrrolo[2,3-b]pyrazine]",343
6,"Cc1cc(-c2c[nH]c3ncc(-c4ccncc4)nc23)cnc1Cl [II-6, 7-(6-chloro-5-methyl-pyridin-3-yl)-2-pyridin-4-yl-5H-pyrrolo[2,3-b]pyrazine]",47.8
7,"Cc1cc(-c2cnc3[nH]cc(-c4cnn(Cc5cccc(F)c5)c4)c3n2)ccn1 [I-12, 7-[1-(3-fluoro-benzyl)-1H-pyrazol-4-yl]-2-(2-methyl-pyridin-4-yl)-5H-pyrrolo[2,3-b]pyrazine]",22.1
8,"c1cncc(Cn2cc(-c3c[nH]c4ncc(-c5ccncc5)nc34)cn2)c1 [I-23, 2-pyridin-4-yl-7-(1-pyridin-3-ylmethyl-1H-pyrazol-4-yl)-5H-pyrrolo[2,3-b]pyrazine]",65.8
